Assays:
[1] = tested on: patients with symptomatic obstructive HCM (oHCM); assay: Phase 2 dose finding clinical trial of aficamten in symptomatic oHCM (10 weeks, Cohort 1 and Cohort 2); type: in vivo, human
Text: Overall, the incidence of adverse events was similar between treatment arms. […] No new cases of atrial fibrillation were reported by the investigators. In this dose-range finding trial, one patient experienced a transient decrease in left ventricular ejection fraction (LVEF) that required dose adjustment but not dose interruption. […] A multi-center, randomized, placebo-controlled, double-blind, dose finding phase 2 clinical trial of aficamten in patients with symptomatic obstructive HCM (oHCM) was conducted and described as Example 2 in WO 2024/031016 and in U.S. Patent Publication US-2024-0115554-A1, the disclosures of which are incorporated by reference herein.

[2] = tested on: patients with symptomatic oHCM; assay: SEQUOIA-HCM: cardiac biomarkers NT-proBNP and hs-cTnI; type: in vivo, human
Text: A further exploratory objective of this trial was to evaluate the effect of aficamten on biomarker levels, as determined by changes from baseline values in NT-pro-BNP, hs-cardiac-TnI and other biomarkers through Week 24. Cardiac biomarkers. Aficamten treatment led to an immediate and significant reduction in both NT-proBNP and hs-cTnI, with substantial lowering of both biomarkers by week 2. […] Biomarker lowering persisted to week 24 when the relative reduction from baseline was-80% (95% CI-83%, −77%, p<0.001) in NT-proBNP and −43% (−49%, […], p<0.001) in hs-cTnI. […] Serum levels of NT-proBNP decreased from baseline to week 24 from 735 (604, 894) ng/L to 143 (120, 171) ng/L in patients receiving aficamten and remained unchanged from 710 (587, 859) ng/L to 717 (596, 863) ng/L in those receiving placebo, while hs-troponin decreased from 17.1 (14.1, 20.8) ng/L to 9.5 (8.0, 11.3) ng/L with aficamten and remained unchanged from 16.6 (13.3, 20.7) to 16.5 (13.7, 19.9) ng/L in placebo (P<0.001 for both comparisons compared to placebo). […] In contrast hs-cTnI reduction reflected 3% (−18%, 30%) of aficamten's effect on pVO2.

[3] = tested on: patients with symptomatic oHCM; assay: SEQUOIA-HCM: EQ-5D-5L index and Visual Analogue Scale quality of life; type: in vivo, human
Text: A further exploratory objective of this trial was to evaluate the effect of aficamten on health status and health-related quality of life as measured by PRO questionnaire, as determine by changes from baseline to Week 24 in individual responses to the EuroQol 5-dimension 5-level instrument (EQ-5D-5L). Improved exercise capacity, disease-specific quality-of-life (QoL), and hemodynamics in patients with obstructive hypertrophic cardiomyopathy (oHCM). Participants underwent blinded dose escalation over 6 weeks and were treated for 24 weeks followed by 4-week washout. EQ-5D-5L index (ranges from 0 to 1) and the Visual Analogue Scale (VAS; from 0 to 100) was measured at baseline and weeks 0, 2, 4, 8, 12, 16, 20, 24, with higher scores indicating better QoL. Aficamten treatment effect on EQ-5D-5L was estimated using linear regression (specific study visits) and mixed effects regression (overall treatment effect) using all follow-up data through week 24, with model adjustments for baseline EQ-5D-5L score and randomization stratification variables.

[4] = tested on: patients with symptomatic oHCM; set-up: species or system human; conditions: in vivo
Method: Patients enrolled in this trial were required to have an LVEF≥60% prior to randomization, as confirmed by the central echocardiography laboratory. […] Dose escalation was performed on an individualized basis only if the following criteria were met: both post-Valsalva LVOT-G≥30 mmHg and biplane LVEF≥55%. Importantly, in contrast to CY 6021, the lower limit of LVEF for dose escalations was increased from 50% to 55% to provide a safety margin from the threshold of LVEF (<50%) that would trigger dose reduction. If the LVEF was <50% at any time, the dose of aficamten was down-titrated, and if the LVEF is <40% at any time, aficamten was temporarily interrupted.
To evaluate the safety and tolerability profile of aficamten in patients with symptomatic oHCM, the following were recorded: (1) incidence of reported major adverse cardiac events (cardiovascular [CV] death, cardiac arrest, non-fatal stroke, non-fatal myocardial infarction, CV hospitalization); (2) incidence of new onset persistent atrial fibrillation; (3) incidence of appropriate implantable cardiac defibrillator (ICD) discharges and aborted sudden cardiac death; (4) incidence of left ventricular ejection fraction (LVEF)<50%; and (5) incidence of treatment emergent adverse events.

[5] = overall treatment effect through week 24

CCc1nc(-c2ccc3c(c2)CC[C@H]3NC(=O)c2cnn(C)c2)no1 [aficamten, (R)—N-(5-(5-ethyl-1,2,4-oxadiazol-3-yl)-2,3-dihydro-1H-inden-1-yl)-1-methyl-1H-pyrazole-4-carboxamide]
tolerability ([1]; 10 weeks treatment): well tolerated
patients achieving target goal of treatment (resting gradient <30 mmHg and post-Valsalva gradient <50 mmHg) ([1]; Cohort 1, Week 10): 78.6%
patients achieving target goal of treatment (resting gradient <30 mmHg and post-Valsalva gradient <50 mmHg) ([1]; Cohort 2, Week 10): 92.9%
LVEF after the end of treatment (reversibility) ([1]; both cohorts): returned towards baseline within two weeks
dose dependence of observed reductions in LVOT-G ([1]; human, in vivo): dose dependent
new cases of atrial fibrillation ([1]; human, in vivo): No new cases
serious adverse events attributed to aficamten ([1]; human, in vivo): No serious adverse events
time of onset of reductions in LVOT-G after initiating treatment ([1]; human, in vivo): within two weeks
hs-cTnI relative reduction from baseline ([2]; Week 24): −43%
patients with 50% relative reduction in hs-troponin ([2]; aficamten group, week 24): 31%
patients with ≥50% reduction in NT-proBNP relative to baseline ([2]; aficamten group, week 24): 84%
hs-troponin level ([2]; aficamten, week 24, baseline 17.1 (14.1, 20.8)): 9.5 (8.0, 11.3) ng/L
serum level of NT-proBNP ([2]; aficamten, week 24, baseline 735 (604, 894)): 143 (120, 171) ng/L
NT-proBNP and hs-cTnI concentrations after cessation of aficamten ([2]; after the treatment period): returning to baseline values
NT-proBNP reduction ([2]; week 8): 79%
hs-cTnI reduction ([2]; week 8): 41%
QoL after treatment withdrawal at 24 weeks compared with placebo ([3]; Index and VAS): worsened
improvement of EQ-5D-5L VAS versus placebo [3, 5]: 2.8 points
improvement of EQ-5D-5L index versus placebo [3, 5]: 0.026
instances of per protocol down-titration [4]: no instances

Reference: patent US20250295639A1, “METHODS FOR TREATING HEART DISEASES” (Cytokinetics, Incorporated, priority 2024, published 2025)
